Measured values from patent US12616665B2, “Neutrophil-to-lymphocyte ratio decreasing agent” (THERABIOPHARMA INC., priority 2020, dated 2026).

System: neutrophil-to-lymphocyte ratio in blood
Experiment: Neutrophil-to-lymphocyte ratio in venous blood after four weeks of curcumin-containing capsule intake
Type: in vivo, human
Procedure: Each of 20 men and women of 60 years old or older was caused to take a curcumin-containing capsule (containing 90 mg of curcumin per capsule) twice a day in the morning and the evening for four weeks (daily dose 180 mg). Venous blood was collected at start and end of administration, and a neutrophil-to-lymphocyte ratio was measured.
As a result, in a non-parametric test (Wilcoxon code rank test), the neutrophil-to-lymphocyte ratio at start of administration was 1.7 (1.3, 2.1), whereas the neutrophil-to-lymphocyte ratio at end of administration was 1.4 (1.2, 1.7).

`COc1cc(/C=C/C(=O)/C=C(O)/C=C/c2ccc(O)c(OC)c2)ccc1O` [curcumin] was tested, and the “neutrophil-to-lymphocyte ratio at end of administration” value (after four weeks, 90 mg curcumin capsule twice a day (daily dose 180 mg), oral, 20 men and women of 60 years old or older, venous blood) was 1.4 (1.2, 1.7), the “neutrophil-to-lymphocyte ratio at start of administration” value (baseline, 20 men and women of 60 years old or older, venous blood, spread in brackets not defined) was 1.7 (1.3, 2.1) and the “change of neutrophil-to-lymphocyte ratio, start vs end of administration” value (four weeks, daily dose 180 mg, non-parametric test (Wilcoxon code rank test)) was “significantly decreased”.
